Results published in patent US11542235B2, “Herbicidal 3-azaspiro[5.5] undecane-8, 10-dione compounds” (SYNGENTA PARTICIPATIONS AG, priority 2018, dated 2023).

Tests used:
Format in all cases: in vivo
[1] = test system: Lolium perenne (LOLPE); assay: Glasshouse herbicidal test, pre- and post-emergence, Lolium perenne; conditions: 250 g/h, evaluated after 13 days, five point scale
How it was run: (§1)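 Pot-grown grass weeds in standard soil were sprayed 1 day after sowing (pre-emergence) or after 8 days (post-emergence) with compound at 250 g/h in acetone/water (50:50) with 0.5% Tween 20. Glasshouse conditions were 24/16 °C day/night, 14 h light, 65% humidity. Damage was scored after 13 days on a five-point scale.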

[2] = test system: Setaria faberi (SETFA); assay: Glasshouse herbicidal test, pre- and post-emergence, Setaria faberi; conditions: pre-emergence, 250 g/h, evaluated after 13 days, five point scale
How it was run: as §1

[3] = test system: Alopecurus myosuroides (ALOMY); assay: Glasshouse herbicidal test, pre- and post-emergence, Alopecurus myosuroides; conditions: 250 g/h, evaluated after 13 days, five point scale
How it was run: as §1

[4] = test system: Echinochloa crus-galli (ECHCG); assay: Glasshouse herbicidal test, pre- and post-emergence, Echinochloa crus-galli; conditions: 250 g/h, evaluated after 13 days, five point scale
How it was run: as §1

[5] = test system: Avena fatua (AVEFA); assay: Glasshouse herbicidal test, pre- and post-emergence, Avena fatua; conditions: 250 g/h, evaluated after 13 days, five point scale
How it was run: as §1

[6] = test system: wheat; assay: Post-emergence crop phytotoxicity, wheat, with or without safener CQC
Procedure: (§2) Seeds of a variety of test species are sown in standard soil in pots (Lolium perenne (LOLPE), Setaria faberi (SETFA), Alopecurus myosuroides (ALOMY), Echinochloa crus-galli (ECHCG), Avena fatua (AVEFA)). After cultivation for one day (pre-emergence) or after 8 days cultivation (post-emergence) under controlled conditions in a glasshouse (at 24/16° C., day/night; 14 hours light; 65% humidity), the plants are sprayed with an aqueous spray solution derived from the formulation of the technical active ingredient in acetone/water (50:50) solution containing 0.5% Tween 20 (polyoxyethelyene sorbitan monolaurate, CAS RN 9005-64-5). Compounds are applied at […]. The test plants are then grown in a glasshouse under controlled conditions in a glasshouse (at 24/16° C., day/night; 14 hours light; 65% humidity) and watered twice daily. After 13 days for pre and post-emergence, the test is evaluated for the percentage damage caused to the plant. The biological activities are shown in the following table on a five point scale (5=80-100%; 4=60-79%; 3=40-59%; 2=20-39%; 1=0-19%).
(§3) Using procedures outlines above, wheat and barley crop plants are treated, along with two weed species Avena fatua (AVEFA) and Lolium multiflorum (LOLPE) post-emergence with compound A2 of the present invention or comparator compound C1 (Compound A-38 from WO2014/096289) at the application rates indicated. The compounds were also applied in conjunction with the safener compound cloquintocet-mexyl (CQC) at 50 g/ha.

[7] = test system: barley; assay: Post-emergence crop phytotoxicity, barley, with or without safener CQC
Procedure: as §2, §3

[8] = test system: Avena fatua (AVEFA); assay: Post-emergence weed phytotoxicity, Avena fatua, with or without safener CQC
Procedure: as §2, §3

[9] = test system: Lolium multiflorum; assay: Post-emergence weed phytotoxicity, Lolium multiflorum, with or without safener CQC
Procedure: as §2, §3

[10] = 60 g/ha + safener cloquintocet-mexyl (CQC) at 50 g/ha

SMILES	% phytotoxicity, Wheat ([6]; 30 g/ha) [%]	% phytotoxicity, Wheat ([6]; 60 g/ha) [%]	% phytotoxicity, Wheat [6, 10] [%]	% phytotoxicity, Barley ([7]; 30 g/ha) [%]	% phytotoxicity, Barley ([7]; 60 g/ha) [%]	% phytotoxicity, Barley [7, 10] [%]	% phytotoxicity, AVENA ([8]; 30 g/ha) [%]	% phytotoxicity, AVENA ([8]; 60 g/ha) [%]	% phytotoxicity, AVENA [8, 10] [%]	% phytotoxicity, LOLMU ([9]; 30 g/ha) [%]	% phytotoxicity, LOLMU ([9]; 60 g/ha) [%]	% phytotoxicity, LOLMU [9, 10] [%]	other results
CC#Cc1cc(C)c(C2C(=O)CC3(CCN(C(C)=O)CC3)CC2=O)c(C)c1 [Compound A2, 3-acetyl-9-(2,6-dimethyl-4-prop-1-ynyl-phenyl)-3-azaspiro[5.5]undecane-8,10-dione]	5	15	5	0	15	0	75	92	92	98	100	100	percentage damage caused to the plant, LOLPE POST ([1]; post-emergence): 5 (5=80-100%); percentage damage caused to the plant, LOLPE PRE ([1]; pre-emergence): 5 (5=80-100%); percentage damage caused to the plant, SETFA PRE [2]: 5 (5=80-100%); percentage damage caused to the plant, ALOMY POST ([3]; post-emergence): 5 (5=80-100%); percentage damage caused to the plant, ALOMY PRE ([3]; pre-emergence): 5 (5=80-100%); percentage damage caused to the plant, ECHCG POST ([4]; post-emergence): 5 (5=80-100%); percentage damage caused to the plant, ECHCG PRE ([4]; pre-emergence): 5 (5=80-100%); percentage damage caused to the plant, AVEFA POST ([5]; post-emergence): 5 (5=80-100%); percentage damage caused to the plant, AVEFA PRE ([5]; pre-emergence): 5 (5=80-100%); damage to the wheat crop compared to prior art compound C1 ([6]; rates of Table B2): significantly less damaging; damage to the barley crop compared to prior art compound C1 ([7]; rates of Table B2): significantly less damaging
CC#Cc1cc(C)c(C2C(=O)CC3(CCOCC3)CC2=O)c(C)c1 [Compound C1, reference compound]	25	75	50	5	90	18	65	90	80	98	100	100	–
